Results reported in US9581729B2, “Compound, photosensitive resin composition comprising the same and color filter” (Samsung SDI Co., Ltd., priority 2015, dated 2017).

Assay: Solubility in dilution solvent (PGMEA)
Type: physicochemical
Settings: 25° C., 100 rpm, 1 hour
Protocol: A dilution solvent (PGMEA) is respectively added to 0.5 g of each compound according to Synthesis Examples 6 to 13 and Comparative Synthesis Examples 1 and 2, and each solution is agitated with a mixrotor (Mixrotor VMR-5, Iuchi Seieido Co., Ltd.) at 25° C. and 100 rpm for 1 hour, and solubility result of each compound is provided in Table 1. Solubility Evaluation Reference Dissolution of a compound (a solute) in an amount of greater than or equal to 10 wt % based on the total weight of the dilution solvent: ∘ Dissolution of a compound (a solute) in an amount ranging from greater than or equal 5 wt % and less than 10 wt % based on the total weight of the dilution solvent: Δ Dissolution of a compound (a solute) in an amount ranging from less than 5 wt % based on the total weight of the dilution solvent: X

| SMILES | Solubility |
| --- | --- |
| CCCCCOc1c(Cl)c(Cl)c2c(c1Cl)C1=NC/2=N\c2c3c(Cl)c(Cl)c(OCCCCC)c(Cl)c3c3[n]2[Zn][n]2/c(c4c(Cl)c(Cl)c(OCCCCC)c(Cl)c4/c2=N/1)=N\C1=NC(=N\3)/c2c(Cl)c(Cl)c(OCCCCC)c(Cl)c21 [Comparative Synthesis Example 2] | Δ (Dissolution of a compound (a solute) in an amount ranging from greater than or equal 5 wt % and less than 10 wt % based on the total weight of the dilution solvent) |
| Clc1c(Cl)c2c(c(Cl)c1Oc1ccccc1)/C1=N/c3c4c(Cl)c(Cl)c(Oc5ccccc5)c(Cl)c4c4[n]3[Zn][n]3/c(c5c(Cl)c(Cl)c(Oc6ccccc6)c(Cl)c5/c3=N/C2=N1)=N\C1=NC(=N\4)/c2c(Cl)c(Oc3ccccc3)c(Cl)c(Cl)c21 [Comparative Synthesis Example 1] | Δ (Dissolution of a compound (a solute) in an amount ranging from greater than or equal 5 wt % and less than 10 wt % based on the total weight of the dilution solvent) |
